Measurements as given in PubChem BioAssay (NCI).
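1) Cells in 96-well plates. 2) Compound, 48 h, 5 concentrations. 3) Linear interpolation between surrounding doses. 4) Unreached endpoint = highest concentration. TGI: total growth inhibition.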

Key:
Experiment in all cases: DTP human tumour cell line panel, 48 h
[1] = test system: NCI-H460 lung
[2] = test system: MALME-3M melanoma
[3] = test system: OVCAR-5 ovarian
[4] = test system: CCRF-CEM leukemia
[5] = test system: MOLT-4 leukemia
[6] = test system: SNB-75 CNS
[7] = test system: DLD-1 colon
[8] = test system: RPMI-8226 leukemia
[9] = test system: SK-OV-3 ovarian
[10] = test system: M19-MEL melanoma
[11] = test system: ACHN renal
[12] = test system: SF-295 CNS
[13] = test system: K-562 leukemia
[14] = test system: NCI-H226 lung
[15] = test system: U251 CNS
[16] = test system: IGROV1 ovarian
[17] = test system: CAKI-1 renal
[18] = test system: HT29 colon
[19] = test system: SK-MEL-28 melanoma
[20] = test system: SN12C renal
[21] = test system: UACC-62 melanoma
[22] = test system: KM20L2 colon
[23] = test system: HL-60(TB) leukemia
[24] = test system: EKVX NSCLC
[25] = test system: LXFL 529 NSCLC
[26] = test system: NCI-H23 lung
[27] = test system: DMS 114 small cell lung
[28] = test system: TK-10 renal
[29] = test system: M14 melanoma
[30] = test system: SR leukemia
[31] = test system: HCT-116 colon
[32] = test system: SNB-19 CNS
[33] = test system: HOP-62 NSCLC
[34] = test system: 786-0 renal
[35] = test system: SK-MEL-2 melanoma
[36] = test system: A549 NSCLC
[37] = test system: SW-620 colon
[38] = test system: KM12 colon
[39] = test system: RXF 393 renal
[40] = test system: HOP-18 NSCLC
[41] = test system: HCC-2998 colon
[42] = test system: SF-539 CNS
[43] = test system: COLO 205 colon
[44] = test system: RXF-631 renal
[45] = test system: LOX IMVI melanoma
[46] = test system: HCT-15 colon
[47] = test system: HOP-92 NSCLC
[48] = test system: UO-31 renal
[49] = test system: OVCAR-4 ovarian
[50] = test system: UACC-257 melanoma
[51] = test system: NCI-H522 lung
[52] = test system: OVCAR-3 ovarian
[53] = test system: SF-268 CNS
[54] = test system: SK-MEL-5 melanoma
[55] = test system: OVCAR-8 ovarian

COc1cc(C(=O)Nc2cccc3ccccc23)c(Br)c(OC)c1OC
TGI [1]: > 100 µM
TGI [2]: > 100 µM
TGI [3]: > 100 µM
TGI [4]: > 100 µM
TGI [5]: > 100 µM
TGI [6]: > 100 µM
TGI [7]: > 100 µM
TGI [8]: > 100 µM
TGI [9]: > 100 µM
TGI [10]: > 100 µM
TGI [11]: > 100 µM
TGI [12]: > 100 µM
TGI [13]: > 100 µM
TGI [14]: > 100 µM
TGI [15]: > 100 µM
TGI [16]: > 100 µM
TGI [17]: > 100 µM
TGI [18]: > 100 µM
TGI [19]: > 100 µM
TGI [20]: > 100 µM
TGI [21]: > 100 µM
TGI [22]: > 100 µM
TGI [23]: 76.2 µM
TGI [24]: > 100 µM
TGI [25]: > 100 µM
TGI [26]: > 100 µM
TGI [27]: > 100 µM
TGI [28]: > 100 µM
TGI [29]: > 100 µM
TGI [30]: > 100 µM
TGI [31]: > 100 µM
TGI [32]: > 100 µM
TGI [33]: > 100 µM
TGI [34]: 3.1 µM
TGI [35]: > 100 µM
TGI [36]: > 100 µM
TGI [37]: > 100 µM
TGI [38]: > 100 µM
TGI [39]: > 100 µM
TGI [40]: 19.5 µM
TGI [41]: > 100 µM
TGI [42]: > 100 µM
TGI [43]: > 100 µM
TGI [44]: > 100 µM
TGI [45]: > 100 µM
TGI [46]: > 100 µM
TGI [47]: > 100 µM
TGI [48]: 86.1 µM
TGI [49]: > 100 µM
TGI [50]: > 100 µM
TGI [51]: > 100 µM
TGI [52]: > 100 µM
TGI [53]: > 100 µM
TGI [54]: > 100 µM
TGI [55]: 13.6 µM
